Some test systems named below: HS 578T breast; HT29 colon; NCI-H460 lung; RPMI-8226 leukemia; SF-295 CNS; UACC-257 melanoma; UACC-62 melanoma; NCI-H522 lung.
Common to all, as to assay: inhibition of tumour cell growth, NCI panel, 48 h

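In this assay, cells in 96-well plates receive the compound at five concentrations for 48 hours. Endpoints are linearly interpolated between the surrounding concentrations. Abbreviation: GI50, concentration required for 50% inhibition of growth. TGI denotes the concentration required for complete inhibition of growth.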

Consider `O=C(Nc1cc(F)c(F)cc1C(=O)O)c1ccc(-n2ccnc2)nn1`, for which the GI50 in the test on HS 578T breast was over 100 µM; in the test with HT29 colon, over 100 µM; in the test on NCI-H460 lung, over 100000 nM; with RPMI-8226 leukemia it was over 100000 nM; in the test on SF-295 CNS, over 100000 nM; in the test with UACC-257 melanoma it was over 100 µM. In addition, in the test with UACC-62 melanoma, the GI50 is over 100000 nM. Besides, the TGI in the test on HS 578T breast, in the test with HT29 colon, in the test with NCI-H460 lung, in the test with RPMI-8226 leukemia, with SF-295 CNS and with UACC-257 melanoma was over 100 µM in each case. In the test with UACC-62 melanoma, this compound displayed a TGI of over 100 µM.
`COc1cc2ncnc(Nc3ccc(Oc4ccnc(C)c4)c(C)c3)c2cc1NC(=O)CC1CCSS1` (stereo not given): the GI50 in the test with HS 578T breast was 1.12 µM; in the test with NCI-H522 lung it was 861 nM; in the test with RPMI-8226 leukemia it was 1140 nM; in the test on UACC-257 melanoma, 1.02 µM; with UACC-62 melanoma it was 1260 nM. Besides, the TGI is 3.21 µM in the test with HS 578T breast; 2.19 µM in the test with NCI-H522 lung; 3.31 µM in the test on RPMI-8226 leukemia; 2.35 µM in the test with UACC-257 melanoma; 3.71 µM in the test on UACC-62 melanoma.
As to `CCOC(=O)c1c(C)nc2c(c1N)/C(=C/c1ccccn1)C(=O)N2Cc1ccccc1`, the GI50 with HS 578T breast is 2.82 µM; in the test on HT29 colon, 1.32 µM; with NCI-H460 lung, 1170 nM; in the test with NCI-H522 lung, 1060 nM; in the test on RPMI-8226 leukemia, 1210 nM; with SF-295 CNS it was 1900 nM. Also, the GI50 with UACC-62 melanoma is 940 nM. The TGI in the test on HS 578T breast is over 50 µM; in the test with HT29 colon, 3.14 µM; in the test with NCI-H460 lung it was 2.8 µM; in the test on NCI-H522 lung it was 2.89 µM; with RPMI-8226 leukemia, 3.22 µM; in the test on SF-295 CNS, over 50 µM. Moreover, the TGI with UACC-62 melanoma stood at 1.96 µM.
Take `COc1ccc(S(=O)(=O)Nc2c(/C=C\c3cc(OC)c(OC)c(OC)c3)ccc(OC)c2O)cc1`: the GI50 is 0.047 µM with HS 578T breast; 1.4 µM in the test with HT29 colon; 36.8 nM in the test on NCI-H460 lung; 20.2 nM with NCI-H522 lung; 46.9 nM in the test on RPMI-8226 leukemia; 33.9 nM in the test on SF-295 CNS. For the same compound, in the test with UACC-62 melanoma, the GI50 was 38.9 nM. For the same compound, the TGI is over 100 µM with HS 578T breast; 10.8 µM in the test on HT29 colon; 13.7 µM with NCI-H460 lung; 0.0536 µM with NCI-H522 lung; 22.4 µM in the test on RPMI-8226 leukemia; over 100 µM in the test with SF-295 CNS. Moreover, the TGI in the test with UACC-62 melanoma was over 100 µM.
Turning to `O=C(Nc1cc(Cl)ccc1O)c1ccccc1Nc1ccnc(C(F)(F)F)c1`, the GI50 in the test on HS 578T breast is 2.42 µM; with HT29 colon, 3.27 µM; with NCI-H460 lung, 2990 nM; with RPMI-8226 leukemia, 1940 nM; in the test with SF-295 CNS, 2500 nM; in the test on UACC-257 melanoma, 2.85 µM. For the same compound, the GI50 with UACC-62 melanoma was 2510 nM. The TGI amounted to 8.54 µM in the test with HS 578T breast; 11.5 µM with HT29 colon; 9.92 µM in the test on NCI-H460 lung; 7.43 µM in the test with RPMI-8226 leukemia; 6.78 µM in the test on SF-295 CNS; 8.5 µM in the test on UACC-257 melanoma. This compound gave a TGI with UACC-62 melanoma of 10 µM.
As to `O=C(Nc1cc(Cl)ccc1O)c1cccc(Nc2ccnc(C(F)(F)F)c2)c1`, the GI50 is 8.27 µM with HS 578T breast; 11.1 µM in the test with HT29 colon; 1950 nM with NCI-H460 lung; 822 nM in the test on RPMI-8226 leukemia; 2380 nM with SF-295 CNS; 4.63 µM in the test with UACC-257 melanoma. The GI50 in the test with UACC-62 melanoma was 901 nM. Also, the TGI came out at 41.2 µM in the test with HS 578T breast; 31.8 µM in the test with HT29 colon; 13.2 µM in the test with NCI-H460 lung; 4.04 µM in the test on RPMI-8226 leukemia; 11.1 µM in the test on SF-295 CNS; 16.7 µM in the test with UACC-257 melanoma. The compound further had a TGI with UACC-62 melanoma of 11.9 µM.
Turning to `Oc1ccc(C(O)(c2ccccc2)c2ccccc2)c2ccccc12`, the TGI in the test on HS 578T breast was 44.8 µM; with HT29 colon, 14.1 µM; in the test on NCI-H460 lung, over 100 µM; in the test with NCI-H522 lung it was 7.17 µM; in the test on SF-295 CNS it was 8.19 µM; in the test with UACC-257 melanoma it was 23.7 µM. Further, in the test with UACC-62 melanoma, the TGI was 3.61 µM.
In the case of `COc1ccc(-c2cn(-c3ccc(OC)c(OC)c3)c(=O)[nH]2)cc1`, the GI50 with HS 578T breast was over 100 µM; in the test on HT29 colon, 65.1 µM; in the test with NCI-H460 lung, over 100000 nM; with NCI-H522 lung, over 100000 nM; in the test with RPMI-8226 leukemia, over 100000 nM; in the test with SF-295 CNS, over 100000 nM. Moreover, the GI50 in the test with UACC-62 melanoma is over 100000 nM. Moreover, the TGI in the test with HS 578T breast, in the test on HT29 colon, with NCI-H460 lung, in the test on NCI-H522 lung, in the test with RPMI-8226 leukemia and with SF-295 CNS was over 100 µM each time. Further, in the test with UACC-62 melanoma, the TGI was over 100 µM.
Consider `CNC(=O)c1c(F)cccc1Nc1nc(Nc2cc3c(cc2OC)CCN3C(=O)CN(C)C)nc2[nH]ccc12`, for which the GI50 in the test on HS 578T breast was 17.8 µM; with HT29 colon, 0.0643 µM; in the test on NCI-H460 lung it was 6200 nM; in the test on NCI-H522 lung, 1560 nM; in the test on RPMI-8226 leukemia it was 4940 nM; in the test with SF-295 CNS, 19000 nM. For the same compound, the GI50 with UACC-62 melanoma was 4660 nM. The TGI with HS 578T breast came to 46.8 µM; with HT29 colon it was 1.66 µM; in the test on NCI-H460 lung, 30.1 µM; in the test on NCI-H522 lung it was 3.63 µM; in the test with RPMI-8226 leukemia it was 17.4 µM; in the test with SF-295 CNS it was 38.2 µM. Further, in the test with UACC-62 melanoma, the TGI stood at 9.79 µM.
Turning to `CCOC(=O)c1[nH]c2cc(OC)c(OC)cc2c1CN(C)C`, the TGI in the test with HT29 colon, in the test on NCI-H460 lung, in the test with RPMI-8226 leukemia, with SF-295 CNS, in the test on UACC-257 melanoma and in the test with UACC-62 melanoma was over 100 µM each time.
For the compound `CC1=C(C(=O)Nc2ccc(F)c(Cl)c2)C(c2cccc(Oc3ccccc3)c2)NC(=S)N1` (stereo not given), the GI50 is 13.3 µM in the test with HS 578T breast; 13500 nM with NCI-H460 lung; 8570 nM with NCI-H522 lung; 16800 nM in the test on RPMI-8226 leukemia; 15600 nM in the test with SF-295 CNS; 13.5 µM in the test with UACC-257 melanoma. In addition, the GI50 with UACC-62 melanoma was 10000 nM. Besides, the TGI in the test on HS 578T breast is 29.2 µM; in the test on NCI-H460 lung, 33.6 µM; in the test on NCI-H522 lung, 24.3 µM; in the test with RPMI-8226 leukemia, over 50 µM; with SF-295 CNS, over 50 µM; in the test with UACC-257 melanoma, 33.5 µM. Besides, in the test with UACC-62 melanoma, the TGI came out at 20.2 µM.

These data come from PubChem BioAssay (NCI).
